Data reported in ChEMBL document CHEMBL5620375, “Tetrahydrobenzo[h]quinoline derivatives as a novel chemotype for dual antileishmanial-antimalarial activity graced with antitubercular activity: Design, synthesis and biological evaluation” (Eur J Med Chem, 2023).
In brackets after ≈: the same amount, converted by molar mass.

Experiments:
Plasmodium berghei [1] = assay: Antimalarial activity against Plasmodium berghei ANKA infected in mouse assessed as reduction in parasite growth at 48.4 microM/Kg,po measured after 96 hrs by giemsa staining analysis; assay type: functional; set-up: scale not given: the % may be the effect or the level left; settings: at 48.4 µmol/kg
[2] = system: Mycobacterium tuberculosis; assay: Antitubercular activity against Mycobacterium tuberculosis H37Ra assessed as inhibition of bacterial growth by microplate alamar blue assay; assay type: functional
Leishmania major [3] = assay: Antileishmanial activity against Leishmania major amastigotes assessed as inhibition of parasite growth incubated for 72 hrs by resazurin reagent based ELISA; assay type: functional, organism-based
Plasmodium berghei [4] = assay: Antimalarial activity against Plasmodium berghei ANKA infected in mouse assessed as mean survival time at 48.4 microM/Kg,po measured after 96 hrs; assay type: functional
Plasmodium berghei [5] = assay: Antimalarial activity against Plasmodium berghei ANKA infected in mouse assessed as parasitemia at 48.4 microM/Kg,po measured after 96 hrs by giemsa staining analysis relative to control; assay type: functional; settings: at 48.4 µmol/kg
Leishmania major [6] = assay: Antileishmanial activity against Leishmania major promastigotes assessed as inhibition of parasite growth incubated for 48 hrs by alamar blue reagent based ELISA; assay type: functional, organism-based
Leishmania major [7] = assay: Antileishmanial activity against Leishmania major promastigotes assessed as parasite survival incubated for 48 hrs in presence of 100 uM of folic acid by alamar blue reagent based ELISA relative to control; assay type: functional
[8] = Acute toxicity in mouse assessed as change in body weight at 25 to 150 mg/kg,po administrated for 3 days; assay type: organism-based; settings: in vivo, 72 h, dose 25-150 mg/kg, time 3 day
[9] = Acute toxicity in mouse assessed as signs of toxicity at 25 to 150 mg/kg,po administrated for 3 days; assay type: organism-based; settings: in vivo, 72 h, dose 25-150 mg/kg, time 3 day
[10] = Selectivity index, ratio of CC50 for cytotoxicity against African green monkey Vero cells to IC50 for antimalarial activity against chloroquine-resistant Plasmodium falciparum RKL9; assay type: toxicity, cell-based; settings: read-out: Ratio CC50/IC50
Plasmodium falciparum = assay: Antimalarial activity against chloroquine-resistant Plasmodium falciparum RKL9 assessed as inhibition of parasite growth incubated for 24 hrs by giemsa staining analysis; assay type: functional, organism-based; settings: RKL9, 24 h
[11] = Selectivity index, ratio of CC50 for cytotoxicity against African green monkey Vero cells to IC50 for antileishmanial activity against Leishmania major; assay type: toxicity, cell-based; settings: read-out: Ratio CC50/IC50
Leishmania major [12] = assay: Antileishmanial activity against Leishmania major promastigotes assessed as parasite survival incubated for 48 hrs in presence of 100 uM of folinic acid by alamar blue reagent based ELISA relative to control; assay type: functional
[13] = Selectivity index, ratio of CC50 for cytotoxicity against African green monkey Vero cells to MIC for antitubercular activity against Mycobacterium tuberculosis H37Ra; assay type: toxicity, cell-based; settings: read-out: Selectivity Index
Leishmania major [14] = assay: Antileishmanial activity against Leishmania major promastigotes assessed as parasite survival incubated for 48 hrs by alamar blue reagent based ELISA relative to control; assay type: functional
Leishmania major [15] = assay: Antileishmanial activity against Leishmania major promastigotes assessed as parasite survival incubated for 48 hrs in presence of 20 uM of folic acid by alamar blue reagent based ELISA relative to control; assay type: functional
Leishmania major [16] = assay: Antileishmanial activity against Leishmania major promastigotes assessed as parasite survival incubated for 48 hrs in presence of 20 uM of folinic acid by alamar blue reagent based ELISA relative to control; assay type: functional
[17] = Cytotoxicity against African green monkey Vero cells incubated for 72 hrs by crystal violet staining based assay; assay type: toxicity, cell-based; settings: chlorocebus sabaeus
[18] = system: Mycobacterium tuberculosis; assay: Antitubercular activity against XDR Mycobacterium tuberculosis RCMB 2674 assessed as inhibition of bacterial growth by microplate alamar blue assay; assay type: functional
Leishmania major [19] = assay: Antileishmanial activity against Leishmania major promastigotes assessed as parasite survival at 100 uM incubated for 48 hrs by alamar blue reagent based ELISA relative to control
Leishmania major [20] = assay: Antileishmanial activity against Leishmania major promastigotes assessed as parasite survival at 100 uM incubated for 48 hrs in presence of 100 uM of folic acid by alamar blue reagent based ELISA relative to control

| SMILES | Activity (Plasmodium berghei [1]) | MIC [2] | IC50 (Leishmania major [3]) | Survival (Plasmodium berghei [4]) | Activity (Plasmodium berghei [5]) | IC50 (Leishmania major [6]) | IC50 (Plasmodium falciparum) | further results |
| --- | --- | --- | --- | --- | --- | --- | --- | --- |
| N#Cc1c(-c2ccccc2Br)c2c([nH]c1=O)-c1ccccc1CC2 | 60% | 10.3 µM (≈ 3.9 µg/mL) | 3.83 µM | 7.33 days | 36% | 2.11 µM |  |  |
| CC(=O)N1CCC(C(=O)NCc2ccc3c(c2)-c2[nH]c(=O)c(C#N)c(-c4cc(Cl)ccc4Cl)c2CC3)CC1 | 96.67% | 28.4 µM (≈ 15.6 µg/mL) | 0.502 µM |  | 3% | 0.409 µM | 0.039 µM | Survival (Leishmania major [7]): 88%; Activity [8]: Non-Toxic; Activity [9]: Non-Toxic; selectivity ratio [10]: 11800; selectivity ratio [11]: 1110; Survival (Leishmania major [12]): 94%; selectivity ratio [13]: 16; Survival (Leishmania major [14]): 24%; Survival (Leishmania major [15]): 78%; Survival (Leishmania major [16]): 82%; CC50 at 72 h [17]: 455 µM |
| COc1cc(-c2c3c([nH]c(=O)c2C#N)-c2ccccc2CC3)cc(OC)c1OC | 91.11% | 20.1 µM (≈ 7.81 µg/mL) | 3.68 µM | 12.4 days | 8% | 2.52 µM | 0.096 µM |  |
| N#Cc1c(-c2cccs2)c2c([nH]c1=O)-c1ccccc1CC2 | 97.78% | 12.8 µM (≈ 3.9 µg/mL) | 4.86 µM |  | 2% | 2.64 µM | 0.021 µM | Activity [8]: Non-Toxic; Activity [9]: Non-Toxic |
| COc1ccc(-c2c3c([nH]c(=O)c2C#N)-c2ccccc2CC3)cc1OC | 57.78% | 10.9 µM (≈ 3.9 µg/mL) | 4.68 µM | 8.66 days | 38% | 2.24 µM |  |  |
| COc1ccc(OC)c(-c2c3c([nH]c(=O)c2C#N)-c2ccccc2CC3)c1 | 94.44% | 5.44 µM (≈ 1.95 µg/mL) | 2.98 µM |  | 5% | 2.33 µM | 0.089 µM | MIC [18]: 175 µM (≈ 62.6 µg/mL) |
| N#Cc1c(-c2ccc(Cl)cc2Cl)c2c([nH]c1=O)-c1ccccc1CC2 | 64.44% | 5.31 µM (≈ 1.95 µg/mL) | 6 µM | 4.5 days | 32% | 5.3 µM |  | MIC [18]: > 342 µM |
| CC(=O)N1CCC(C(=O)NCc2ccc3c(c2)-c2[nH]c(=O)c(C#N)c(-c4cc(C(F)(F)F)ccc4Cl)c2CC3)CC1 | 37.78% | 53.6 µM (≈ 31.2 µg/mL) | 3.26 µM | 5.66 days | 56% | 1.24 µM |  |  |
| COc1ccc(-c2c3c([nH]c(=O)c2C#N)-c2ccccc2CC3)cc1O | 63.33% | 5.66 µM (≈ 1.95 µg/mL) | 3.7 µM | 7.33 days | 33% | 1.4 µM |  | MIC [18]: 182 µM (≈ 62.6 µg/mL) |
| Cc1cccc(-c2c3c([nH]c(=O)c2C#N)-c2ccccc2CC3)c1 | 80% | 100 µM (≈ 31.2 µg/mL) | 5.58 µM | 9.33 days | 18% | 3.46 µM |  |  |
| COc1cccc(-c2c3c([nH]c(=O)c2C#N)-c2ccccc2CC3)c1 | 87.78% | 23.8 µM (≈ 7.81 µg/mL) | 4.88 µM | 10.66 days | 11% | 4.15 µM |  |  |
| COc1ccccc1-c1c2c([nH]c(=O)c1C#N)-c1ccccc1CC2 | 53.33% | 2.98 µM (≈ 0.979 µg/mL) | 6.29 µM | 6.5 days | 42% | 5.49 µM |  | selectivity ratio [11]: 60.6; MIC [18]: 23.8 µM (≈ 7.82 µg/mL); selectivity ratio [13]: 127; CC50 at 72 h [17]: 381 µM |
| COc1ccc(-c2c3c([nH]c(=O)c2C#N)-c2ccccc2CC3)cc1 | 71.11% | 11.9 µM (≈ 3.9 µg/mL) | 4.7 µM | 9.66 days | 26% | 3.9 µM |  |  |
| COc1cc(-c2c3c([nH]c(=O)c2C#N)-c2ccccc2CC3)ccc1O | 97.78% | 90.7 µM (≈ 31.2 µg/mL) | 0.695 µM |  | 2% | 0.577 µM | 0.019 µM | Survival (Leishmania major [7]): 85%; Activity [8]: Non-Toxic; Activity [9]: Non-Toxic; selectivity ratio [10]: 18300; selectivity ratio [11]: 629; Survival (Leishmania major [12]): 89%; selectivity ratio [13]: 4; Survival (Leishmania major [14]): 22%; Survival (Leishmania major [15]): 76%; Survival (Leishmania major [16]): 78%; CC50 at 72 h [17]: 363 µM |
| N#Cc1c(-c2ccccc2[N+](=O)[O-])c2c([nH]c1=O)-c1ccccc1CC2 | 81.11% |  | 5.63 µM | 8.83 days | 17% | 4.22 µM |  |  |
| N#Cc1c(O)nc2c(c1-c1cccc([N+](=O)[O-])c1)CCc1ccccc1-2 | 68.89% | 5.67 µM (≈ 1.95 µg/mL) | 3.97 µM | 7.66 days | 28% | 2.89 µM |  | MIC [18]: 91.1 µM (≈ 31.3 µg/mL) |
| CCN(CC)CCCC(C)Nc1ccnc2cc(Cl)ccc12.O=P(O)(O)O.O=P(O)(O)O (configuration not stated) [CHLOROQUINE PHOSPHATE] | 100% |  |  | 13.12 days | 0% |  |  |  |
| NNC(=O)c1ccncc1 [ISONIAZID] |  | 0.875 µM (≈ 0.12 µg/mL) |  |  |  |  |  |  |
| CCc1nc(N)nc(N)c1-c1ccc(Cl)cc1 [PYRIMETHAMINE] | 100% |  |  |  | 0% |  | 0.013 µM |  |
| COc1cc(Cc2cnc(N)nc2N)cc(OC)c1OC [TRIMETHOPRIM] |  |  |  |  |  |  |  | survival at 100 µM (Leishmania major [19]): 71%; survival at 100 µM (Leishmania major [20]): 99% |
